Reference: patent publication US8263606B2 (Xenon Pharmaceuticals Inc., priority 2008, dated 2012)
pIC50: −log10 of the molar value.

Experiments:
sodium channel = experiment: Guanidine influx assay (14C-guanidine radiotracer flux, in vitro); type: cell-based, human or rat; details: guanidine influx assay using a known cell line that expresses a sodium channel
How it was run: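 Test agents at half-step dilutions around 1 μM are added to plated cells in low-sodium HEPES buffer, then an aconitine/14C-guanidine mixture; after ambient-temperature incubation, cells are washed and counted. IC50 comes from a sigmoidal fit.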

CYP3A4 = CYP3A4 (Homo sapiens, UniProt P08684); experiment: Cytochrome P450 (CYP450) Inhibition Assay, CYP3A4 (Vivid fluorescence, BOMCC substrate); details: human, P450 Baculosomes (recombinant CYP3A4), probe BOMCC (Vivid substrate)
CYP3A4, sequence (P08684 whole entry): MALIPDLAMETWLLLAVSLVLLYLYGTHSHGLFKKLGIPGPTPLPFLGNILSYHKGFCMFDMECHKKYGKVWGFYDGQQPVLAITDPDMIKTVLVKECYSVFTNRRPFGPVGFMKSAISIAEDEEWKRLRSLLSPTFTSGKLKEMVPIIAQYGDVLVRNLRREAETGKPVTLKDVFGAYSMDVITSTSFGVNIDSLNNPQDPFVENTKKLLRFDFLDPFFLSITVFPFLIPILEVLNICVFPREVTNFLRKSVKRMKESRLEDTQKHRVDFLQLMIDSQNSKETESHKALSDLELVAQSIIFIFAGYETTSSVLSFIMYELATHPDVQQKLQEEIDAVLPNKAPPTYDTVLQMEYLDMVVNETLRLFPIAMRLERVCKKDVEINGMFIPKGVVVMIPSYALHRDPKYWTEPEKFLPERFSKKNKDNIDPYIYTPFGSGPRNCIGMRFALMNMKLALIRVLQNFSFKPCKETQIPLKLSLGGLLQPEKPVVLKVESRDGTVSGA

SMILES | pIC50 (sodium channel; activity level class) | inhibition at 10 µM (CYP3A4) [%] | melting point [°C] | pIC50 (sodium channel)
O=C1N(C[C@@H]2COCCO2)c2ccccc2[C@@]12COc1cc3c(cc12)OCCO3 [Example 8.5, (8R)-1′-[(2R)-1,4-dioxan-2-ylmethyl]-2,3-dihydrospiro[furo[2,3-g][1,4]benzodioxine-8,3′-indol]-2′(1′H)-one] | 5.00 to 6.00 | < 50 | 198 to 199 | 
O=C1N(CCCO)c2ccccc2C12COc1cc3c(cc12)OCCO3 (stereo not drawn) [Example 17.2, 1′-(3-hydroxypropyl)-2,3-dihydrospiro[furo[2,3-g][1,4]benzodioxine-8,3′-indol]-2′(1′H)-one] |  | < 50 | 157 to 158 | 7.00 to 9.00
COc1cc2c(cc1F)C1(CO2)C(=O)N(CC2CCCCO2)c2ccccc21 (stereo not drawn) [Example 4.64, 5-fluoro-6-methoxy-1′-(tetrahydro-2H-pyran-2-ylmethyl)spiro[1-benzofuran-3,3′-indol]-2′(1′H)-one] | 6.00 to 7.00 | < 50 | 131 to 133 | 
CN1C(=O)C2(COc3cc4c(cc32)CCO4)c2ccccc21 (stereo not drawn) [Example 11.43, 1′-methyl-5,6-dihydrospiro[benzo[1,2-b:5,4-b′]difuran-3,3′-indol]-2′(1′H)-one] |  | < 50 | 187 to 190 | 6.00 to 7.00
Cc1nc2cc3c(cc2o1)C1(CO3)C(=O)N(C(c2ccccc2)c2ccccc2)c2ccccc21 (stereo not drawn) [Example 2.14, 1′-(diphenylmethyl)-2-methylspiro[furo[2,3-f][1,3]benzoxazole-7,3′-indol]-2′(1′H)-one] | ≤ 5.00 | < 50 | 240 to 242 | 
CC(C)(C)CCNC(=O)CN1C(=O)C2(COc3cc4c(cc32)CCO4)c2ccccc21 (stereo not drawn) [Example 12.49, N-(3,3-dimethylbutyl)-2-(2′-oxo-5,6-dihydrospiro[benzo[1,2-b:5,4-b′]difuran-3,3′-indol]-1′(2′H)-yl)acetamide] |  | > 50 | 161 to 163 | 6.00 to 7.00
O=C1N(Cc2nc3ccccc3s2)c2ccccc2C12COc1cc3c(cc12)OCCO3 (stereo not drawn) [Example 4.119, 1-(1,3-benzothiazol-2-ylmethyl)-2,3-dihydrospiro[furo[2,3-g][1,4]benzodioxine-8,3′-indol]-2′(1′H)-one] | 7.00 to 9.00 | > 50 | 164 to 166 | 
O=C1Nc2cccc(Cl)c2C12COc1cc3c(cc12)CCO3 (stereo not drawn) [Example 3.1, 4′-chloro-5,6-dihydrospiro[benzo[1,2-b:5,4-b′]difuran-3,3′-indol]-2′(1′H)-one] | 7.00 to 9.00 | > 50 | > 200 | 
COCCOc1ccc2c(c1)OCC21C(=O)N(Cc2ccccn2)c2ccccc21 (stereo not drawn) [Example 5.34, 6-(2-methoxyethoxy)-1′-(pyridin-2-ylmethyl)spiro[1-benzofuran-3,3′-indol]-2′(1′H)-one] | 6.00 to 7.00 | < 50 | 94 to 95 | 
Cc1noc2cc3c(cc12)C1(CO3)C(=O)N(C[C@H]2CCCO2)c2ccccc21 (stereo partly drawn) [Example 9.26, 3-methyl-1′-[(2R)-tetrahydrofuran-2-ylmethyl]spiro[furo[3,2-f][1,2]benzisoxazole-5,3′-indol]-2′(1′H)-one] | 6.00 to 7.00 | < 50 | 134 to 135 | 
CC(C)OCCCNC(=O)CN1C(=O)C2(COc3cc4c(cc32)CCO4)c2ccccc21 (stereo not drawn) [Example 12.50, N-[3-(1-methylethoxy)propyl]-2-(2′-oxo-5,6-dihydrospiro[benzo[1,2-b:5,4-b′]difuran-3,3′-indol]-1′(2′H)-yl)acetamide] |  | > 50 | 149 to 151 | 6.00 to 7.00
CC1(C)OC[C@H](CN2C(=O)C3(COc4cc5c(cc43)OCCO5)c3ccccc32)O1 (stereo partly drawn) [Example 9.45, 1′-{[(4S)-2,2-dimethyl-1,3-dioxolan-4-yl}methyl]-2,3-dihydrospiro[furo[2,3-g][1,4]benzodioxine-8,3′-indol]-2′(1′H)-one] | 7.00 to 9.00 | > 50 | 55 to 57 | 
O=C1N(Cc2ccccn2)c2c(F)cccc2C12COc1cc3c(cc12)OCCO3 (stereo not drawn) [Example 8.15, 7′-fluoro-1′-(pyridin-2-ylmethyl)-3,7-dihydro-2H-spiro[benzofuro[5,6-b][1,4]dioxine-8,3′-indolin]-2′-one] | 7.00 to 9.00 | < 50 | 205 to 207 | 
O=C1N(Cc2noc(C3CC3)n2)c2ccccc2C12COc1cc3c(cc12)OCO3 (stereo not drawn) [Example 11.24, 1′-[(5-cyclopropyl-1,2,4-oxadiazol-3-yl)methyl]spiro[furo[2,3-f][1,3]benzodioxole-7,3′-indol]-2′(1′H)-one] |  | > 50 | 136 to 137 | 7.00 to 9.00
N#Cc1cc2c(cc1F)OCC21C(=O)Nc2ccccc21 (stereo not drawn) [Example 3.30, 6-fluoro-2′-oxo-1′,2′-dihydrospiro[1-benzofuran-3,3′-indole]-5-carbonitrile] | 5.00 to 6.00 | < 50 | 222 to 224 | 
Nc1noc2cc3c(cc12)C1(CO3)C(=O)N(Cc2ccccc2C(F)(F)F)c2ccccc21 (stereo not drawn) [Example 44.3, 3-amino-1′-[2-(trifluoromethyl)benzyl]spiro[furo[3,2-f][1,2]benzisoxazole-5,3′-indol]-2′(1′H)-one] |  | > 50 | 262 to 264 | 5.00 to 6.00
O=C1N(Cc2ncccc2C(F)(F)F)c2ccccc2C12COc1c(Cl)cc3c(c12)OCCO3 (stereo not drawn) [Example 11.108, 6-chloro-1′-{[3-(trifluoromethyl)pyridin-2-yl]methyl}-2,3-dihydrospiro[furo[3,2-f][1,4]benzodioxine-9,3′-indol]-2′(1′H)-one] |  | < 50 | 273 to 275 | 5.00 to 6.00
Cc1cccc(NC(=O)CN2C(=O)C3(COc4cc5c(cc43)CCO5)c3ccccc32)c1C (stereo not drawn) [Example 12.55, N-(2,3-dimethylphenyl)-2-(2′-oxo-5,6-dihydrospiro[benzo[1,2-b:5,4-b′]difuran-3,3′-indol]-1′(2′H)-yl)acetamide] |  | > 50 | 251 to 253 | 5.00 to 6.00
O=C(NCc1ccccc1Cl)c1ccccc1CN1C(=O)C2(COc3cc4c(cc32)CCO4)c2ccccc21 (stereo not drawn) [Example 12.16, N-(2-chlorobenzyl)-2-[(2′-oxo-5,6-dihydrospiro[benzo[1,2-b:5,4-b′]difuran-3,3′-indol]-1′(2′H)-yl)methyl]benzamide] |  | > 50 | 148 to 150 | 6.00 to 7.00
O=C1N(C[C@H]2CCCO2)c2cccc(Br)c2C12COc1cc3c(cc12)CCO3 (stereo partly drawn) [Example 4.35, 4′-bromo-1′-[(2R)-tetrahydrofuran-2-ylmethyl]-5,6-dihydrospiro[benzo[1,2-b:5,4-b′]difuran-3,3′-indol]-2′(1′H)-one] | 7.00 to 9.00 | > 50 | 137 to 141 | 
COc1cc2c(cc1F)C1(CO2)C(=O)N(Cc2ccc(C(F)(F)F)o2)c2ccccc21 (stereo not drawn) [Example 9.30, 5-fluoro-6-methoxy-1′-{[5-(trifluoromethyl)furan-2-yl]methyl}spiro[1-benzofuran-3,3′-indol]-2′(1′H)-one] | 6.00 to 7.00 | > 50 | 45 to 47 | 
O=C1N(Cc2cccc(Cl)n2)c2ccccc2C12COc1cc3c(cc12)OCCO3 (stereo not drawn) [Example 5.13, 1′-[(6-chloropyridin-2-yl)methyl]-2,3-dihydrospiro[furo[2,3-g][1,4]benzodioxine-8,3′-indol]-2′(1′H)-one] | 7.00 to 9.00 | > 50 | 181 to 182 | 
O=C1N(Cc2ccc(-c3noc(C(F)(F)F)n3)cc2)c2ccccc2C12COc1cc3c(cc12)CCO3 (stereo not drawn) [Example 11.13, 1′-{4-[5-(trifluoromethyl)-1,2,4-oxadiazol-3-yl]benzyl}-5,6-dihydrospiro[benzo[1,2-b:5,4-b′]difuran-3,3′-indol]-2′(1′H)-one] |  | < 50 | 178 to 179 | 6.00 to 7.00
O=C1N(Cc2ccccn2)c2ccccc2C12COc1cc3nccnc3cc12 (stereo not drawn) [Example 4.130, 1′-(pyridin-2-ylmethyl)spiro[furo[2,3-g]quinoxaline-8,3′-indol]-2′(1′H)-one] | 5.00 to 6.00 | < 50 | 232 to 233 | 
O=C1N(Cc2cc3cccc(F)c3o2)c2ccccc2C12COc1cc3c(cc12)CCO3 (stereo not drawn) [Example 9.8, 1′-[(7-fluoro-1-benzofuran-2-yl)methyl]-5,6-dihydrospiro[benzo[1,2-b:5,4-b′]difuran-3,3′-indol]-2′(1′H)-one] | 7.00 to 9.00 | > 50 | 192 to 193 | 
O=C1Nc2ccccc2C12COc1cc3nccnc3cc12 (stereo not drawn) [Example 3.51, spiro[furo[2,3-g]quinoxaline-8,3′-indol]-2′(1′H)-one] | 5.00 to 6.00 | < 50 | 206 to 207 | 
COc1cc2c(cc1C)C1(CO2)C(=O)N(CC2CCCCO2)c2ccccc21 (stereo not drawn) [Example 4.63, 6-methoxy-5-methyl-1′-(tetrahydro-2H-pyran-2-ylmethyl)spiro[1-benzofuran-3,3′-indol]-2′(1′H)-one] | 5.00 to 6.00 | > 50 | 180 to 182 | 
N#Cc1ccc(CN2C(=O)C3(COc4cc5c(cc43)OCCO5)c3ccccc32)cc1 (stereo not drawn) [Example 4.96, 4-[(2′-oxo-2,3-dihydrospiro[furo[2,3-g][1,4]benzodioxine-8,3′-indol]-1′(2′H)-yl)methyl]benzonitrile] | 7.00 to 9.00 | > 50 | 69 to 72 | 
